Data from patent US20070015733A1, “Aryl Phosphate Derivatives of d4T having Activity Against Resistant HIV Strains” (Parker Hughes Institute, priority 1998, published 2007).

Columns and labels:
[1] = Octanol/water partition coefficient, shake flask method; assay type: physicochemical
Procedure: Partition Coefficients. The octanol/water partition coefficient was determined by the shake flask method. The phosphoramidate analogs were added to 2 ml of water and 2 ml of octanol in a glass vial. The mixture was shaken for 4 hours at room temperature. The two phases were carefully separated and filtered through a Millipore filter and analyzed by HPLC. The partition coefficient was calculated using the ratio of the area under the curve for octanol and water respectively.

[2] = Alkaline chemical hydrolysis rate (NaOH/methanol, HPLC); assay type: physicochemical; settings: alkali hydrolysis
Procedure: All chemicals were purchased from Aldrich (Milwaukee, Wis.), with the exception of d4T which was synthesized in-house. All syntheses were performed under a nitrogen atmosphere. ^1H, ^13C, and ^31P NMR were obtained on a Varian Mercury 300 instrument at ambient temperature in CDCl3. FT-IR spectra were recorded on a Nicolet Protege 460 spectrometer. MALDI-TOF mass spectra were obtained by using a Finnigan MAT 95 system. UV spectra were recorded by using a Beckmann UV-VIS spectrophotometer (Model 3DU 74000) with a cell path length of 1 cm. HPLC purification was achieved by using a reverse-phase Lichrospher column (250×4 mm, Hewlett-Packard, RP-18, Cat # 79925) and an isocratic flow (1 ml/minute) consisting of water (70%) and acetonitrile (30%). The alkaline chemical hydrolysis was conducted at room temperature with sodium hydroxide (1 ml of 0.05N) and 3 ml of methanol solution containing 10 mg of the substrates in a Teflon lined reaction vial. […] The disappearance of the starting material was monitored as a function of time. […]
Statistical Analysis. The IC50 values were calculated from each set of triplicate wells using nonlinear regression modeling of the exponential form of the linearized equation. […] Hydrolysis rates were determined by fitting single exponential decay equations to the disappearance of the compound in alkali conditions. […]

HIV-1 HTLVIIIB = assay: microbe, parasite or virus in culture; settings: read-out: IC50 HTLVIIIB; PBMNC, p24
Procedure: In vitro assays of anti-HIV-1 activity. Normal human peripheral blood mononuclear cells (PBMNC) from HIV-negative donors were cultured 72 hours in RPMI 1640 supplemented with 20% (v/v) heat-inactivated fetal bovine serum (FBS), 3% interleukin-2, 2 mM L-glutamine, 25 mM HEPES, 2 g/L NaHCO3, […], and […] prior to exposure to HIV-1 at a multiplicity of infection (MOI) of 0.1 during a 1 hour adsorption period at 37° C. in a humidified 5% CO2 atmosphere. Subsequently, cells were cultured in 96-well microtiter plates ([…]; 2×10^6 cells/mL) in the presence of various concentrations of d4T phosphoramidates and aliquots of culture supernatants were removed from the wells on the 7th day after infection for p24 antigen assays, as previously described (Uckun et al., 1998, Antimicrobial Agents and Chem., 42(2):383-388). The applied p24 enzyme immunoassay (EIA) was the unmodified kinetic assay commercially available from Coulter Corporation/Immunotech, Inc. (Westbrooke, Me.), which utilizes a murine mAb to HIV core protein coated onto microwell strips to which the antigen present in the test culture supernatant samples binds. Percent viral inhibition was calculated by comparing the p24 values from untreated infected cells (i.e., virus controls).
The anti-HIV activity of the compounds was examined by evaluating their ability to inhibit HIV replication in peripheral blood mononuclear cells using previously described procedures (Uckun et al., 1998, Antimicrobial Agents and Chem., 42(2):383-388). Percent inhibition of viral replication was calculated by comparing the p24 antigen levels from the test substance-treated infected cells with those from vehicle-treated infected cells.
Antiviral susceptibility assays. Phenotypic drug susceptibility studies of HIV-1 isolates and strains were performed by measuring the production of the p24 gag protein in peripheral blood mononuclear cells (PBMC) from seronegative healthy volunteers in the presence of increasing concentrations of the anti-HIV agent using the quantitative Coulter HIV-1 p24 antigen ezyme immunoassay (EIA) and HIV-1 p24 Antigen Kinetic Standard (Beckman Coulter), as previously described (Uckun, 1998, Antimicrobial Agents and Chemotherapy 37(4): 835-38). Informed consent was obtained from the blood donors according to DHHS guidelines using consent forms approved by the Institutional Review Board. In brief, PBMC were cultured for 72 h in RPMI 1640 medium (Gibco) supplemented with 20% (vol/vol) heat-inactivated fetal bovine serum, 5% human interleukin-2 (Zeptometrix), 2 mM L-glutamine, 25 mM HEPES, 2 g/L NaHCO3, 100 U/ml penicillin/streptomycin (Gibco), 50 μg/ml gentamicin (Gibco), and 5 μg/ml phytohemagglutinin-P (PHA-P) (Sigma) for 24-72 hours prior to exposure to HIV at a multiplicity of infection of 0.001-0.1 during a 1-h adsorbtion period at 37±1° C. in a humidified 5-7% CO2 atmosphere. Subsequently, cells were cultured in 96-well microtiter plates (100 μl/well; 2×10^6 cells/ml, triplicate wells) in the presence of the anti-HIV agents at 6-7 different concentrations ranging from 0.0001 μM to 100 μM, and 25 μL aliquots of culture supernatants were removed from the wells on day 6 after infection for p24 EIA, as previously described (Uckun, 1998, Antimicrobial Agents and Chemotherapy, 37(4):835-38). Controls included uninfected and untreated cells (background control) and infected but untreated (virus control) cells. The p24 EIA utilizes a murine monoclonal antibody to HIV core protein used to coat microwell strips to which the antigen present in the test culture supernatant samples binds. Percent inhibition of viral replication was calculated by comparing the p24 values from the test substance-treated infected cells with p24 values from untreated infected cells (i.e., virus controls). The IC50 values were determined using the Statview statistics program (SAS Institute, Inc.).

[3] = test system: HIV-1 A17 (Y181C mutant, NNRTI-resistant); assay: p24 antigen assay, A17 strain in PBMC; assay type: cell-based; settings: PBMNC, p24; read-out: IC50 A17
From the text: (§1) In vitro assays of anti-HIV-1 activity.
(§2) Viruses. 20 primary clinical isolates with genotypic and/or phenotypic NRTI-resistance (isolated in the laboratory of D. Richman) and 10 clinical isolates with phenotypic stavudine (d4T) resistance (obtained through the AIDS Research and Reference Reagent Program, NIAID) were used in the current study. The HIV-1 strains HTLVIIIB (wildtype RT, NRTI-sensitive, NNRTI-sensitive), A17 (Y181 C mutant, NNRTI-resistant), A17-variant (Y181C+K103N mutant, NNRTI-resistant), and RT-MDR (M41 L, V106N, T215Y; NRTI-resistant, NNRTI-resistant) were also obtained from the AIDS Research and Reference Reagent Program, NIAID.
(§3) Antiviral susceptibility assays.

[4] = test system: HIV-1 RT-MDR (NRTI-resistant, NNRTI-resistant); assay: p24 antigen assay, RT-MDR strain; assay type: cell-based; settings: p24; read-out: IC50 RTMDR
[5] = test system: HIV-1 A17-variant (Y181C+K103N mutant, NNRTI-resistant); assay: p24 antigen assay, A17-variant strain in PBMC; assay type: cell-based; settings: PBMNC, p24; read-out: IC50 A17V
From the text: as §1, §2, §3

Structure (SMILES) | Partition Coefficient (log P) [1] | Hydrolysis Rate [2] | IC50 (HIV-1 HTLVIIIB) | IC50 [3] | IC50 [4] | IC50 [5]
COC(=O)C(C)NP(=O)(OCC1C=CC(n2cc(C)c(=O)[nH]c2=O)O1)Oc1cccc(Br)c1 (centres unmarked) [Compound 9, 5′-[3-Bromophenylmethoxyalaninylphosphate]-2′,3′-didehydro-3′-deoxythymidine] | 1.12 | 0.0338 min⁻¹ | 2 ± 2 nM | 42 ± 24 nM | 493 ± 285 nM | 
COC(=O)C(C)NP(=O)(OCC1C=CC(n2cc(C)c(=O)[nH]c2=O)O1)Oc1ccccc1Cl (centres unmarked) [Compound 13, 5′-[2-Chlorophenylmethoxyalaninylphosphate]-2′,3′-didehydro-3′-deoxythymidine] | 0.84 | 0.0370 min⁻¹ | 3 ± 1 nM | 34 ± 20 nM | 187 ± 108 nM | 15 ± 8 nM
